System: NRK cells
Assay: Toxicity by trypan blue exclusion and replating of detached cells
Format: cell-based, rat
Protocol: The activities of the crude and high performance liquid chromatrography (HPLC)-purified GRGDSP peptide were similar. […] To study the correlation of detaching capacity with the cell attachment-promoting and attachment-inhibiting effects established previously (Pierschbacher and Ruoslahti, 1984a; 1984b), each of the following listed peptides was tested for its ability to detach cells: […]

## N=C(N)NCCC[C@H](NC(=O)CN)C(=O)NCC(=O)N[C@@H](CC(=O)O)C(=O)N[C@@H](CO)C(=O)N1CCC[C@H]1C(=O)O [GRGDSP, GLY-ARG-GLY-ASP-SER-PRO]
NRK aggregates
  replating of aggregates washed free of the peptide: attached to the dish
Detached NRK cells
  cell death by trypan blue exclusion: no cell death could be detected

Source: US4879237A, “Use of peptides in control of cell attachment and detachment” (La Jolla Cancer Research Foundation, priority 1985, dated 1989)
